The source of these data is US9926304B2, “1-(arylmethyl)quinazoline-2,4(1H,3H)-diones as PARP inhibitors and the use thereof” (Impact Therapeutics, Inc., priority 2011, dated 2018).

The subject of assay [1] is Human breast cancer cell line T47D. Nature of the assay: Cell based caspase-3 activity assay: potentiation of MMS induced apoptosis. As to conditions: T47D cells, 11.1 μg/ml MMS, 24 hours, intracellular caspase-3 activity, read-out: EC50 (nM), potentiation of the apoptosis inducing activity of MMS. An excerpt: Determination of the synergistic potentiation effect of 1-(3-(4-(pyrimidin-2-yl)piperazine-1-carbonyl)benzyl)quinazoline-2,4(1H,3H)-dione and analogs on MMS induced apoptosis using a cell based caspase-3 activity assay
Human breast cancer cell line T47D was used to determine the potentiation effect of PARP inhibitors on the apoptosis inducing activity of DNA damaging anticancer drugs such as MMS. Intracellular caspase-3 activity was used to measure cell apoptosis. The dose response effect of MMS to induce intracellular caspase activity was carefully titrated and the concentration that only induces a minimal level of caspase activity was used to test the potentiation effect of PARP inhibitors. Briefly, T47D cells were grown in DMEM/F12 cell culture medium (Hyclone) supplemented with 0.2 U/ml insulin (Genview) and 10% FBS (Hyclone). A day before experiment, 20000 of T47D cells were seeded to each well of a 96-well cell culture plate and maintained at 37° C. and 5% CO2 in a cell culture incubator overnight. On the day of experiment, cell culture medium was removed. One hundred and eighty μl of fresh medium containing 11.1 μg/ml MMS was added to each well and followed by 20 μl medium containing 10 folds of the concentrations of experimental drugs or reference compounds (ADZ2281 and ABT-888). The serial dilutions of the compounds to be tested and the reference compounds were made in a 1:3 and 1:10 fashion in DMSO. The 10-fold compound solutions were made by mixing 10 μl DMSO serial dilution solutions with 90 μl fresh growth medium. Twenty four hours later, the cells in the 96-well plates were centrifuged at 1000 g for 5 min and the supernatants were removed. Fifty μl lysis buffer (10 mM Tris, pH7.5, 0.1M NaCl, 1 mM EDTA, 0.01% Triton X-100) was added to each well and the plates were shaked horizontally for 30 min at 4° C. After centrifugation at 1000 g at 4° C. for 10 min, 20 μl of supernatant was transferred from each well to a corresponding well in a 384-well black plate. Twenty μl of buffer (20 mM PIPES, pH7.4, 4 mM EDTA and 0.2% CHAPS) containing 20 μM fluorescent caspase-3 substrate ((Ac-DEVD)2-R110, AnaSpec Cat #60304-5) was added to each well afterwards. The plates were shaked to uniformly mix the wells and incubated at 37° C. for 3 h. The fluorescence intensity was measured using the following wavelength: ex: 496 nm, em: 520 nm using a fluorescence plate reader (Varioskan Flash, Thermo Fisher Scientific). The caspase-3 activity induced by the compounds was expressed as a relative fluorescence unit (RFU). The obtained fluorescence readings were analyzed using a commercial graphic software (GraphPad Prism 5) and plotted against the Log value of the compound concentrations. The EC50 values were obtained by fitting the data points with the equation of Y (fluorescence reading)=minimal fluorescence reading+(maximal fluorescence reading−minimal fluorescence reading)/(1+10^(Log EC50−Log C)), where C is the concentration of the testing compound.
The synergistic potentiation effect of compounds on MMS induced apoptosis in T47D cells is expressed as EC50 values and listed in Table 2.

For assay [2], the system named is SW620 human colorectal cancer cells. Nature of the assay: MTT based cell viability assay: potentiation of the growth inhibiting activity of MMS.
The mark [3] stands for this setting: read-out: IC50 (nM), potentiation of the growth inhibiting activity of MMS, SW620 cells, 1.7 μg/ml MMS, 5 days (120 hours), MTT.
Where [4] appears, read: Homo sapiens, SW-620, 120 h, read-out: IC50 (nM), potentiation of the growth inhibiting activity of MMS, SW620 cells, 1.7 μg/ml MMS, 5 days (120 hours), MTT.

The EC50 is the concentration giving half of the maximal effect.

Where two headings read alike, the source gives them in different places.

For “1-(3-(4-(Cyclopentylcarbonyl)piperazine-1-carbonyl)-4-fluorobenzyl)-6-fluoroquinazoline-2,4(1H,3H)-dione [Example 148]”, the 50% effective concentration (EC50) in assay [1] was found to be 2.3 nM. Further, in assay [2] (setting [3]), the IC50 turned out to be 2.1 nM.
For “1-(3-(4-(Cyclopentylcarbonyl)piperazine-1-carbonyl)-6-fluorobenzyl)-6-fluoroquinazoline-2,4(1H,3H)-dione [Example 153]”, the EC50 in assay [1] turned out to be 2 nM. Further, the IC50 in assay [2] (setting [3]) came to 9.2 nM.
Regarding “1-(3-(4-Phenylpiperidine-1-carbonyl)benzyl)quinazoline-2,4(1H,3H)-dione [Example 18]”, the EC50 in assay [1] is above 10000 nM. Besides, the IC50 in assay [2] (setting [3]) is above 10000 nM.
For “1-(3-(5-Bromopyrimidin-2-aminocarbamoyl)-4-fluorobenzyl)-5-fluoroquinazoline-2,4(1H,3H)-dione [Example 205]”, the EC50 in assay [1] was above 10000 nM. The IC50 in assay [2] (setting [3]) was above 10000 nM.
For the compound `C[C@]1(c2nc3c(C(N)=O)cccc3[nH]2)CCCN1` [ABT-888, reference compound], the EC50 in assay [1] came to 3490 nM. The IC50 in assay [2] (setting [3]) was found to be 2640 nM.
As for `COC(=O)c1cccc(Cn2c(=O)[nH]c(=O)c3ccccc32)c1` [Example 1, 1-(3-Methoxycarbonylbenzyl)quinazoline-2,4(1H,3H)-dione], the EC50 in assay [1] (Homo sapiens, T47D, 24 h) was above 10000 nM. The IC50 in assay [2] (setting [4]) was above 10000 nM.
`O=C(O)c1cccc(Cn2c(=O)[nH]c(=O)c3ccccc32)c1` [Example 2, 1-(3-Carboxybenzyl)quinazoline-2,4(1H,3H)-dione]: in assay [1] (Homo sapiens, T47D, 24 h), the half-maximal effective concentration (EC50) was above 10000 nM. In assay [2] (setting [4]), the IC50 is above 10000 nM.
As to `O=C(c1cccc(Cn2c(=O)[nH]c(=O)c3ccccc32)c1)N1CCN(C2CCCCC2)CC1` [Example 5, 1-(3-(4-Cyclohexylpiperazine-1-carbonyl)benzyl)quinazoline-2,4(1H,3H)-dione], the EC50 in assay [1] (Homo sapiens, T47D, 24 h) is 450 nM. Further, in assay [2] (setting [4]), the IC50 amounted to 5360 nM.
On the same counts, the results for `O=C(c1cccc(Cn2c(=O)[nH]c(=O)c3ccccc32)c1)N1CCN(c2ccc3nncn3n2)CC1` [Example 6, 1-(3-(4-([1,2,4]Triazolo[4,3-b]pyridazin-6-yl)piperazine-1-carbonyl)benzyl)quinazoline-2,4(1H,3H)-dione] are 2520 nM and 7030 nM.
As to `CCN1CCN(C(=O)c2cccc(Cn3c(=O)[nH]c(=O)c4ccccc43)c2)CC1` [Example 7, 1-(3-(4-Ethylpiperazine-1-carbonyl)benzyl)quinazoline-2,4(1H,3H)-dione], the EC50 in assay [1] (Homo sapiens, T47D, 24 h) was 2660 nM. The IC50 in assay [2] (setting [4]) turned out to be 5270 nM.
The like results for `O=C(c1ccc(F)cc1)N1CCN(C(=O)c2cccc(Cn3c(=O)[nH]c(=O)c4ccccc43)c2)CC1` [Example 9, 1-(3-(4-(4-Fluorobenzoyl)piperazine-1-carbonyl)benzyl)quinazoline-2,4(1H,3H)-dione] were, in that order, 426 nM and 500 nM.
The like results for `O=C(c1ccc(Cl)cc1)N1CCN(C(=O)c2cccc(Cn3c(=O)[nH]c(=O)c4ccccc43)c2)CC1` [Example 10, 1-(3-(4-(4-Chlorobenzoyl)piperazine-1-carbonyl)benzyl)quinazoline-2,4(1H,3H)-dione] were, in that order, 400 nM and 439 nM.
The like results for `COc1ccc(C(=O)N2CCN(C(=O)c3cccc(Cn4c(=O)[nH]c(=O)c5ccccc54)c3)CC2)cc1` [Example 12, 1-(3-(4-(4-Methoxybenzoyl)piperazine-1-carbonyl)benzyl)quinazoline-2,4(1H,3H)-dione] were, in that order, 318 nM and 533 nM.
For `O=C(c1cc(Cn2c(=O)[nH]c(=O)c3cc(Cl)ccc32)ccc1F)N1CCN(C(=O)C2CC2)CC1` [Example 122, 6-Chloro-1-(3-(4-(cyclopropylcarbonyl)piperazine-1-carbonyl)-4-fluorobenzyl)quinazoline-2,4(1H,3H)-dione], in assay [1] (Homo sapiens, T47D, 24 h), the EC50 was 8.4 nM.
As for `O=C(NC1CCCCC1)N1CCN(C(=O)c2cccc(Cn3c(=O)[nH]c(=O)c4ccccc43)c2)CC1` [Example 191, 1-(3-(4-(Cyclohexylcarbamoyl)piperazine-1-carbonyl)benzyl)quinazoline-2,4(1H,3H)-dione], the IC50 in assay [2] (setting [4]) was found to be 192 nM.
